Source: patent US20090311217A1, “3-SUBSTITUTED-1H-INDOLE COMPOUNDS, THEIR USE AS MTOR KINASE AND PI3 KINASE INHIBITORS, AND THEIR SYNTHESES” (priority 2008, published 2009)
Where two headings read alike, the source gives them in different places.

What was measured:
PI3K-alpha = PI3K-alpha (Homo sapiens, UniProt P42336); assay: PI3K-alpha fluorescence polarization assay; assay type: biochemical
human TOR = target: T1, human TOR (Homo sapiens, UniProt P42345); assay: mTOR enzyme assay (DELFIA, His6-S6K substrate); assay type: biochemical
T1 construct: FLAG

[1] = read-out: mTOR Kinase Avg. IC50

PI3K-alpha, sequence (P42336 whole entry, species assumed): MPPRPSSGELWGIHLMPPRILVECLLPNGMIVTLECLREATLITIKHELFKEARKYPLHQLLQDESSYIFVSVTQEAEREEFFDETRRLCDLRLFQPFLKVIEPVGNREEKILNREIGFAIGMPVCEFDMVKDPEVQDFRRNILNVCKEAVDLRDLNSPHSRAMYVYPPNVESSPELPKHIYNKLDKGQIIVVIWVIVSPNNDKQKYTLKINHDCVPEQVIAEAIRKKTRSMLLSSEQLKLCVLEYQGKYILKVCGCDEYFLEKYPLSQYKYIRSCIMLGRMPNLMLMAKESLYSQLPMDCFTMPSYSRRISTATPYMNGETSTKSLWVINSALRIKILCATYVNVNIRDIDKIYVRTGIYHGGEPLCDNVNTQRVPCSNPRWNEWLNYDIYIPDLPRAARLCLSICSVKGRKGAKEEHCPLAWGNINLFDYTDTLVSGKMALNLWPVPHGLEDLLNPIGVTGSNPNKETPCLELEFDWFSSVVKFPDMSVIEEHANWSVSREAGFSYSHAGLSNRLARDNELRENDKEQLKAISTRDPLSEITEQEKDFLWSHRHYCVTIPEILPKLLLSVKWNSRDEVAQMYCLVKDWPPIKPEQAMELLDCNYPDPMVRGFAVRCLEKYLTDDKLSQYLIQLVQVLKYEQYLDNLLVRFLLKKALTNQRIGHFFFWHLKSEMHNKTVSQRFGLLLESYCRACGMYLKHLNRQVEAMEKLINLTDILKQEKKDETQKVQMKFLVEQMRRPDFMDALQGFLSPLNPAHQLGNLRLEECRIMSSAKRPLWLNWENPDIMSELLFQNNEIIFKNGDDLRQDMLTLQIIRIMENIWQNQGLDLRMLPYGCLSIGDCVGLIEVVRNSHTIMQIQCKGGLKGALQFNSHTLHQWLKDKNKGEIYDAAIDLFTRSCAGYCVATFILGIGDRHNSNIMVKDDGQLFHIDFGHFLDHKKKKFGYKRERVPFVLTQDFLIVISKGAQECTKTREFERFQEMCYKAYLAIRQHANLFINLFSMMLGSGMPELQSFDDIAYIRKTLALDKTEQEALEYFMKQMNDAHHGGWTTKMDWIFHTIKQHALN
PI3K-alpha, sequence (P27986 whole entry partner, species assumed): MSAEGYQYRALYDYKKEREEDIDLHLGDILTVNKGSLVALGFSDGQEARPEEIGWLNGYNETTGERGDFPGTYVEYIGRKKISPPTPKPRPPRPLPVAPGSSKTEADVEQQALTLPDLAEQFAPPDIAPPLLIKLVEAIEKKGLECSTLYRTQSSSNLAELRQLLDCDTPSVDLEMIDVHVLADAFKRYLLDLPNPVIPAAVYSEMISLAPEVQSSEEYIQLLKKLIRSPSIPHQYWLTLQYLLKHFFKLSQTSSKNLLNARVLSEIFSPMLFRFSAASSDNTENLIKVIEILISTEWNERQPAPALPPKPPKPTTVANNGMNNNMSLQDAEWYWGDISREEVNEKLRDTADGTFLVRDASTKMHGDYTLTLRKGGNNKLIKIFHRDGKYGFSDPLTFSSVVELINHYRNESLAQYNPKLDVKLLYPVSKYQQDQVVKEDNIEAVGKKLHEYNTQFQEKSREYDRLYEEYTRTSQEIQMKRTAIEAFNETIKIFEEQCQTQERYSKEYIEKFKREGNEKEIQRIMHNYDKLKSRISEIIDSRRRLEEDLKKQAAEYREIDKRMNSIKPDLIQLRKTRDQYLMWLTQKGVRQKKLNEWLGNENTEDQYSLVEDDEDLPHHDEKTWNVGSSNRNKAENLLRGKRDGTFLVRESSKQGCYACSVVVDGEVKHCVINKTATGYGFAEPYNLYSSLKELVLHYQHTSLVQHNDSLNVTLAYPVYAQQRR

SMILES | IC50 (PI3K-alpha; read-out: PI3Kα Avg. IC50) [µM] | IC50 (human TOR; [1]) [µM] | IC50 (PI3K-alpha; PI3Kα Avg. IC50) [µM] | IC50 (human TOR; mTOR Kinase Avg. IC50) [µM]
Cc1c(C=C2Oc3cc(O)cc(O)c3C2=O)c2cccc(Br)c2n1C [Example 234, 2-[(7-bromo-1,2-dimethyl-1H-indol-3-yl)methylene]-4,6-dihydroxy-1-benzofuran-3(2H)-one] | > 10 | 14 |  | 
N#Cc1cccc2c1c(C=C1Oc3cc(O)cc(O)c3C1=O)cn2Cc1ccncc1 [Example 263, 3-[(4,6-dihydroxy-3-oxo-1-benzofuran-2(3H)-ylidene)methyl]-1-(pyridin-4-ylmethyl)-1H-indole-4-carbonitrile] | 1.68 | 0.26 |  | 
Cc1noc(C)c1-c1c(C=C2Oc3cc(O)cc(O)c3C2=O)c2ccccc2n1C [Example 191, 2-{[2-(3,5-dimethylisoxazol-4-yl)-1-methyl-1H-indol-3-yl]methylene}-4,6-dihydroxy-1-benzofuran-3(2H)-one] | 4.18 | 0.39 |  | 
O=C1C(=Cc2c(-c3ccsc3)[nH]c3ccccc23)Oc2cc(O)cc(O)c21 [Example 207, 4,6-dihydroxy-2-{[2-(3-thienyl)-1H-indol-3-yl]methylene}-1-benzofuran-3(2H)-one] | 1.29 | 0.3 |  | 
O=C1C(=Cc2c[nH]c3c(Br)cccc23)Oc2cc(O)cc(O)c21 [Example 244, 2-[(7-bromo-1H-indol-3-yl)methylene]-4,6-dihydroxy-1-benzofuran-3(2H)-one] | 1.96 | 18 |  | 
Cn1cc(C=C2Oc3cc(O)ccc3C2=O)c2ccccc21 [Example 8, 6-hydroxy-2-[(1-methyl-1H-indol-3-yl)methylene]-1-benzofuran-3(2H)-one] | > 10 | > 20 |  | 
CN(C)c1ccc(-c2c(C=C3Oc4cc(O)cc(O)c4C3=O)c3ccccc3n2C)cc1 [Example 198, 2-({2-[4-(dimethylamino)phenyl]-1-methyl-1H-indol-3-yl}methylene)-4,6-dihydroxy-1-benzofuran-3(2H)-one] | 4.87 | 4.5 |  | 
O=C1C(=Cc2c[nH]c3c([N+](=O)[O-])cccc23)Oc2cc(O)cc(O)c21 [Example 180, 4,6-dihydroxy-2-[(7-nitro-1H-indol-3-yl)methylene]-1-benzofuran-3(2H)-one] | 3.12 | > 20 |  | 
NC(=O)Cn1c(-c2ccccc2)c(C=C2Oc3cc(O)cc(O)c3C2=O)c2ccccc21 [Example 161, 2-{3-[(4,6-dihydroxy-3-oxo-1-benzofuran-2(3H)-ylidene)methyl]-2-phenyl-1H-indol-1-yl}acetamide] | 1.76 | 0.6 |  | 
CN(C)c1ccc(-c2[nH]c3ccccc3c2C=C2Oc3cc(O)cc(O)c3C2=O)cc1 [Example 211, 2-({2-[4-(dimethylamino)phenyl]-1H-indol-3-yl}methylene)-4,6-dihydroxy-1-benzofuran-3(2H)-one] | 1.06 | 0.59 |  | 
O=C1C(=Cc2c(-c3ccccc3)[nH]c3ccccc23)Oc2ccccc21 [Example 2, 2-[(2-phenyl-1H-indol-3-yl)methylene]-1-benzofuran-3(2H)-one] | > 10 | > 20 |  | 
COC(=O)c1cccc2c(C=C3Oc4cc(O)cc(O)c4C3=O)cn(C)c12 [Example 250, methyl 3-[(4,6-dihydroxy-3-oxo-1-benzofuran-2(3H)-ylidene)methyl]-1-methyl-1H-indole-7-carboxylate] | 3.55 | > 20 |  | 
COc1ccc2[nH]cc(C=C3Oc4cc(O)cc(O)c4C3=O)c2c1C [Example 219, 4,6-dihydroxy-2-[(5-methoxy-4-methyl-1H-indol-3-yl)methylene]-1-benzofuran-3(2H)-one] | 1 | > 20 |  | 
Cn1cc(C=C2Oc3ccccc3C2=O)c2ccccc21 [Example 4, 2-[(1-methyl-1H-indol-3-yl)methylene]-1-benzofuran-3(2H)-one] | 12.3 | > 20 |  | 
O=C1C(=Cc2c(-c3ccccn3)[nH]c3ccccc23)Oc2cc(O)cc(O)c21 [Example 72, 4,6-dihydroxy-2-[(2-pyridin-2-yl-1H-indol-3-yl)methylene]-1-benzofuran-3(2H)-one] |  |  | 3.65 | 0.0213
COc1ccc2c(C=C3Oc4cc(O)cc(O)c4C3=O)c[nH]c2c1 [Example 186, 4,6-dihydroxy-2-[(6-methoxy-1H-indol-3-yl)methylene]-1-benzofuran-3(2H)-one] | 5.76 | 16 |  | 
Cc1ccc2[nH]cc(C=C3Oc4cc(O)cc(O)c4C3=O)c2c1 [Example 170, 4,6-dihydroxy-2-[(5-methyl-1H-indol-3-yl)methylene]-1-benzofuran-3(2H)-one] | 5.77 | > 20 |  | 
Cc1c(C=C2Oc3cc(O)cc(O)c3C2=O)c2cc(Cl)ccc2n1C [Example 233, 2-[(5-chloro-1,2-dimethyl-1H-indol-3-yl)methylene]-4,6-dihydroxy-1-benzofuran-3(2H)-one] | 2.04 | 0.85 |  | 
COc1cccc2c1c(C=C1Oc3cc(O)cc(O)c3C1=O)cn2C [Example 255, 4,6-dihydroxy-2-[(4-methoxy-1-methyl-1H-indol-3-yl)methylene]-1-benzofuran-3(2H)-one] | 2.46 | 0.3 |  | 
Cc1c(C=C2Oc3cc(O)cc(O)c3C2=O)c2ccccc2n1C [Example 247, 2-[(1,2-dimethyl-1H-indol-3-yl)methylene]-4,6-dihydroxy-1-benzofuran-3(2H)-one] | 3.15 | 2.9 |  | 
O=C1C(=Cc2c[nH]c3ccc(OCc4ccccc4)cc23)Oc2cc(O)cc(O)c21 [Example 52, 2-{[5-(benzyloxy)-1H-indol-3-yl]methylene}-4,6-dihydroxy-1-benzofuran-3(2H)-one] | 1.89 | > 5 |  | 
O=C1/C(=C/c2c[nH]c3ccc(OCc4ccccc4)cc23)Oc2cc(O)ccc21 [Example 34, (2Z)-2-{[5-(benzyloxy)-1H-indol-3-yl]methylene}-6-hydroxy-1-benzofuran-3(2H)-one] | > 10 | > 20 |  | 
Cn1cc(C=C2Oc3cc(O)cc(O)c3C2=O)c2cccc(Br)c21 [Example 249, 2-[(7-bromo-1-methyl-1H-indol-3-yl)methylene]-4,6-dihydroxy-1-benzofuran-3(2H)-one] | 4.81 | > 20 |  | 
O=C1/C(=C/c2cn(Cc3ccccc3)c3ccccc23)Oc2cc(O)cc(O)c21 [Example 51, (2Z)-2-[(1-benzyl-1H-indol-3-yl)methylene]-4,6-dihydroxy-1-benzofuran-3(2H)-one] | > 10 | > 5 |  | 
O=C1C(=Cc2c[nH]c3cc4c(cc23)OCO4)Oc2cc(O)cc(O)c21 [Example 168, 2-(5H-[1,3]dioxolo[4,5-f]indol-7-ylmethylene)-4,6-dihydroxy-1-benzofuran-3(2H)-one] | 6.54 | > 20 |  | 
O=C1C(=Cc2c(-c3ccc(F)c(Cl)c3)[nH]c3ccccc23)Oc2cc(O)cc(O)c21 [Example 212, 2-{[2-(3-chloro-4-fluorophenyl)-1H-indol-3-yl]methylene}-4,6-dihydroxy-1-benzofuran-3(2H)-one] | 1.06 | 0.64 |  | 
Cc1[nH]c2ccc([N+](=O)[O-])cc2c1C=C1Oc2cc(O)cc(O)c2C1=O [Example 162, 4,6-dihydroxy-2-[(2-methyl-5-nitro-1H-indol-3-yl)methylene]-1-benzofuran-3(2H)-one] | 2.45 | > 20 |  | 
